Calls of active or inactive are those of the source. No cut-off for these calls is given here.
Assays:
EMT6 [1] = assay: In vitro phototoxicity in EMT-6 cells at 1 uM after 6 hr MTT assay; type: functional, Mus musculus
[2] = target: Estrogen receptor (Homo sapiens) (UniProt Q92731+P03372); assay: Displacement of [3H]estradiol from estrogen receptor; type: protein assay; details: tested as the Zn salt or complex
EMT6 [3] = assay: In vitro phototoxicity in EMT-6 cells at 1 uM after 24 hr r MTT assay; type: functional, Mus musculus
EMT6 [4] = assay: In vitro phototoxicity in EMT-6 cells at 1 uM after 24 hr r MTT assay; Not active; type: functional, cell-based; details: Mus musculus, tested as the Zn salt or complex
EMT6 [5] = assay: In vitro phototoxicity in EMT-6 cells at 1 uM after 6 hr MTT assay; Not active; type: functional, cell-based; details: Mus musculus, tested as the Zn salt or complex

Structure (SMILES)	LD90 (EMT6 [1]) [J cm**-2]	relative binding affinity (RBA) [2]	LD90 (EMT6 [3]) [J cm**-2]	LD90 (EMT6 [4])	LD90 (EMT6 [5])
C[C@]12CC[C@@H]3c4ccc(O)cc4CC[C@H]3[C@@H]1CC[C@]2(O)CCCCC#CC#Cc1ccc2c(c1)-c1nc-2nc2[nH]c(nc3nc(nc4[nH]c(n1)c1ccc(S(=O)(=O)[O-])cc41)-c1ccc(S(=O)(=O)[O-])cc1-3)c1ccc(S(=O)(=O)[O-])cc21.[Na+].[Na+].[Na+].[Zn]	7.3	1.26	2.9		
CCCCc1ccc2c(c1)-c1nc-2nc2[nH]c(nc3nc(nc4[nH]c(n1)c1ccc(CCCC)cc41)-c1ccc(C#CC#Cc4cccc([C@@]5(O)CC[C@H]6[C@@H]7CCc8cc(O)ccc8[C@H]7CC[C@@]65C)c4)cc1-3)c1ccc(CCCC)cc21		8.54		inactive	inactive
C[C@]12CC[C@@H]3c4ccc(O)cc4CC[C@H]3[C@@H]1CC[C@]2(O)C#Cc1ccc2c(c1)-c1nc-2nc2[nH]c(nc3nc(nc4[nH]c(n1)c1ccc(S(=O)(=O)[O-])cc41)-c1ccc(S(=O)(=O)[O-])cc1-3)c1cc(S(=O)(=O)[O-])ccc21.[Na+].[Na+].[Na+].[Zn]	7	1.64	5.1		
C[C@]12CC[C@@H]3c4ccc(O)cc4CC[C@H]3[C@@H]1CC[C@]2(O)CCCCC#CC#Cc1cccc2c1-c1nc-2nc2[nH]c(nc3nc(nc4[nH]c(n1)c1ccc(S(=O)(=O)[O-])cc41)-c1ccc(S(=O)(=O)[O-])cc1-3)c1ccc(S(=O)(=O)[O-])cc21.[Na+].[Na+].[Na+].[Zn]	12	0.56	4.3		
CCCCc1ccc2c(c1)-c1nc-2nc2[nH]c(nc3nc(nc4[nH]c(n1)c1ccc(CCCC)cc41)-c1ccc(C#CC#CCCCC[C@@]4(O)CC[C@H]5[C@@H]6CCc7cc(O)ccc7[C@H]6CC[C@@]54C)cc1-3)c1ccc(CCCC)cc21		3.08		inactive	inactive
CCCCc1ccc2c(c1)-c1nc-2nc2[nH]c(nc3nc(nc4[nH]c(n1)c1ccc(CCCC)cc41)-c1ccc(C#C[C@@]4(O)CC[C@H]5[C@@H]6CCc7cc(O)ccc7[C@H]6CC[C@@]54C)cc1-3)c1ccc(CCCC)cc21		1.35		inactive	inactive
CCCCc1ccc2c(c1)-c1nc-2nc2[nH]c(nc3nc(nc4[nH]c(n1)c1ccc(CCCC)cc41)-c1cccc(C#C[C@@]4(O)CC[C@H]5[C@@H]6CCc7cc(O)ccc7[C@H]6CC[C@@]54C)c1-3)c1ccc(CCCC)cc21		12.9		inactive	inactive
CCCCc1ccc2cc3c(cc2c1)-c1nc-3nc2[nH]c(nc3nc(nc4[nH]c(n1)c1cc5ccc(CCCC)cc5cc41)-c1ccc(C#C[C@@]4(O)CC[C@H]5[C@@H]6CCc7cc(O)ccc7[C@H]6CC[C@@]54C)cc1-3)c1cc3ccc(CCCC)cc3cc21		10.4		inactive	inactive
C[C@]12CC[C@@H]3c4ccc(O)cc4CC[C@H]3[C@@H]1CC[C@]2(O)c1ccc(C#CC#Cc2ccc3c(c2)-c2nc-3nc3[nH]c(nc4nc(nc5[nH]c(n2)c2ccc(S(=O)(=O)[O-])cc52)-c2ccc(S(=O)(=O)[O-])cc2-4)c2ccc(S(=O)(=O)[O-])cc32)cc1.[Na+].[Na+].[Na+].[Zn]	10.4	1.22	5.3		
C[C@]12CC[C@@H]3c4ccc(O)cc4CC[C@H]3[C@@H]1CC[C@]2(O)c1cccc(C#CC#Cc2ccc3c(c2)-c2nc-3nc3[nH]c(nc4nc(nc5[nH]c(n2)c2ccc(S(=O)(=O)[O-])cc52)-c2ccc(S(=O)(=O)[O-])cc2-4)c2ccc(S(=O)(=O)[O-])cc32)c1.[Na+].[Na+].[Na+].[Zn]	10.4	0.3	4		
C[C@]12CC[C@@H]3c4ccc(O)cc4CC[C@H]3[C@@H]1CC[C@]2(O)C#Cc1cccc2cc3c(cc12)-c1nc-3nc2[nH]c(nc3nc(nc4[nH]c(n1)c1ccc(S(=O)(=O)[O-])cc41)-c1ccc(S(=O)(=O)[O-])cc1-3)c1cc(S(=O)(=O)[O-])ccc21.[Na+].[Na+].[Na+].[Zn]	12	1.24	3		

Source: ChEMBL document CHEMBL1136680, “Synthesis and biological activities of phthalocyanine-estradiol conjugates” (2003)
